In US20170022260A9 (Sanofi, priority 2013, published 2017):
≈ marks a conversion by molar mass, not a printed value.

What was measured:
physchem = format: physicochemical
Description: Prior to the testing of solubility and stability of a peptide batch, its content was determined Therefore, two parameters were investigated, its purity (HPLC-UV) and the amount of salt load of the batch (ion chromatography).
. Therefore, solutions from solid samples were prepared in different buffer systems with a concentration of 1.0 mg/mL compound based on the previously determined content. HPLC-UV was performed after 2 h of gentle agitation from the supernatant, which was obtained by 20 min of centrifugation at 4000 rpm.
This analysis also served as starting point (t0) for the stability testing.
As HPLC/UPLC method, method D or E has been used.

[1] = test system: Female diabetic dbdb-mice; experiment: Glucose lowering in female diabetic dbdb-mice; format: in vivo; conditions: 100 μg/kg s.c.
Description: Female diabetic dbdb-mice (BKS.Cg-+Leprdb/+Leprdb/OlaHsd) 10 weeks of age at study start were used. Mice were habituated to feeding and housing conditions for at least 2 weeks. 7 days prior to study start, HbA1c were determined to allocate mice to groups, aiming to spread low, medium and high HbA1c-values and in consequence the group-means (n=8), as equally as possible. On the day of study, food was removed, directly before sampling for baseline glucose assessment (t=0 min) Immediately afterwards, compounds or vehicle (phosphor buffered saline, PBS) were administered subcutaneously, 100 μg/kg, 10 ml/kg. Afterwards, blood samples were drawn by tail tip incision at 15, 30, 60, 90, 120, 150, 180, 240, 360, 480 min and 24 h. Food was re-offered after the 480 min-sampling.
Data were analysed by 2-W-ANOVA on repeated measurements, followed by Dunnett's test as post-hoc assessment, level of significance p<0.05.

Row | solubility at 2 h (physchem; pH 4.5, solubility pH 4.5) [µg/mL] | solubility at 2 h (physchem; pH 7.4, solubility pH 7.4) [µg/mL] | Compound | reduction of glucose compared to vehicle control, statistical significance ([1]; female db/db-mice, p<0.05, 2-way-ANOVA, Dunnett's post-hoc test) | maximal effect, glucose reduction ([1]; non-fasted female db/db-mice, change from baseline (baseline on average 28 mmol/l)) [mmol/1]
1 | 934 (≈ 223 µM) | > 1000 | CC[C@H](C)[C@H](NC(=O)[C@H](CC(C)C)NC(=O)[C@H](Cc1c[nH]c2ccccc12)NC(=O)[C@H](CCC(=O)O)NC(=O)[C@@H](NC(=O)[C@H](Cc1ccccc1)NC(=O)[C@H](CCC(=O)O)NC(=O)[C@H](CCCCN)NC(=O)[C@H](C)NC(=O)[C@H](CCCNC(=N)N)NC(=O)[C@H](CCC(N)=O)NC(=O)[C@H](CCC(=O)O)NC(=O)[C@H](CC(=O)O)NC(=O)[C@H](CC(C)C)NC(=O)[C@H](CCC(N)=O)NC(=O)[C@H](CCCCN)NC(=O)[C@H](CO)NC(=O)[C@H](CC(C)C)NC(=O)[C@H](CC(=O)O)NC(=O)[C@H](CO)NC(=O)[C@@H](NC(=O)[C@H](Cc1ccccc1)NC(=O)[C@@H](NC(=O)CNC(=O)[C@H](CCC(N)=O)NC(=O)[C@H](CO)NC(=O)[C@@H](N)Cc1c[nH]cn1)[C@@H](C)O)[C@@H](C)O)[C@@H](C)CC)C(=O)N[C@@H](C)C(=O)NCC(=O)NCC(=O)N1CCC[C@H]1C(=O)N[C@H](C(=O)N[C@@H](CO)C(=O)NCC(=O)N[C@@H](C)C(=O)N1CCC[C@H]1C(=O)N1CCC[C@H]1C(=O)N1CCC[C@H]1C(=O)N[C@@H](CO)C(N)=O)C(C)C [SEQ ID NO: 6, HSQGTFTSDLSKQLDEQRAKEFIEWLIAGGPVSGAPPPS-NH2] |  | 
2 |  |  | H-Aib-HGTFTSDLSKQLDEQRAKDFIEWLIAGGPSSGAPPPS-NH2 [SEQ ID NO: 10] | statistical significant reduction of glucose compared to vehicle control from t=60 min until 240 min | ~12
